# From ChEMBL document CHEMBL3882724 (2013)
# pIC50: −log10 of the molar value.
# Columns and labels:
# [1] = molecular target: T1, CYP21 (steroid 21-hydroxylase) (Homo sapiens, UniProt P08686); assay: Inhibition of human CYP21 transfected in HEK293 cells assessed as decrease in conversion of progesterone to 11-deoxycorticosterone preincubated for 5 hrs followed by progesterone addition measured after 20 hrs by ELISA; format: cell-based; set-up: concentration or dose not given beside the values; conditions: HEK293 cells transfected with human CYP21, probe progesterone
# T1 sequence (P08686 whole entry): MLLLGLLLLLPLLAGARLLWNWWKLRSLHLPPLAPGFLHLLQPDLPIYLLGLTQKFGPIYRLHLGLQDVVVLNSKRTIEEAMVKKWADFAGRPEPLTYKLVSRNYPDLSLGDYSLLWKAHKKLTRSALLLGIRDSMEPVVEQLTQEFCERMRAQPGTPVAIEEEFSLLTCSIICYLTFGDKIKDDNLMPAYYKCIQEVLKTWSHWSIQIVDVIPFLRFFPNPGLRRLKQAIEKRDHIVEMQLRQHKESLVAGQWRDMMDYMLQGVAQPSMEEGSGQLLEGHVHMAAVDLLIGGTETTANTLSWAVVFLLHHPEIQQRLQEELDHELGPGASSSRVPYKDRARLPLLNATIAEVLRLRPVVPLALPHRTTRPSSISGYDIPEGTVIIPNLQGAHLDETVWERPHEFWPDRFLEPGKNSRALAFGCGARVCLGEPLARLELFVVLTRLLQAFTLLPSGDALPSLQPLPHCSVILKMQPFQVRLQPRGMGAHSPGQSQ
# [2] = molecular target: T2, Steroid 17-alpha-hydroxylase/17,20 lyase (Homo sapiens, UniProt P05093); assay: Inhibition of CYP17 in human testicular microsomes using 17alpha-hydroxypregnenolone as substrate assessed as decrease in DHEA levels at 10 nM after 90 mins by ELISA relative to control; set-up: species or system Testis; conditions: 1.5 h
# T2 sequence (P05093 whole entry): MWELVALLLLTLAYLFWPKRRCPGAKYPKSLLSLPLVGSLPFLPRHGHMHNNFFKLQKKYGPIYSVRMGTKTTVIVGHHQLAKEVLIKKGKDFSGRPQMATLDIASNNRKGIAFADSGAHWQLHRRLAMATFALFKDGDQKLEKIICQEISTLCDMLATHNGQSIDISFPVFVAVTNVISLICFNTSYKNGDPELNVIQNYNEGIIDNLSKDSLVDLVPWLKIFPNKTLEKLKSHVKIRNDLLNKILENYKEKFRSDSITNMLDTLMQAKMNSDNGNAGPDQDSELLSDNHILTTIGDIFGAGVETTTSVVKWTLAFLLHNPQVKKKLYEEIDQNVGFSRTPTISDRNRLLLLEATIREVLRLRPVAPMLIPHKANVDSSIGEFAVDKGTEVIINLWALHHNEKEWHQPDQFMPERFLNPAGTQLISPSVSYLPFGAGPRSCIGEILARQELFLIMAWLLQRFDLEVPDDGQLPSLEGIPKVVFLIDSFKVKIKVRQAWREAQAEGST
# [3] = molecular target: T2, Steroid 17-alpha-hydroxylase/17,20 lyase; assay: Inhibition of CYP17 in human testicular microsomes using 17alpha-hydroxypregnenolone as substrate assessed as decrease in DHEA levels after 90 mins by ELISA; set-up: species or system Testis
# [4] = Half life in human liver microsomes at 1 uM by LC-MS/MS analysis
SMILES,inhibition at 0.01 µM [2] [%],other results
"COC1CC2[C@@H]3CC=C(n4ccnc4)[C@@]3(C)CC[C@@H]2[C@@]2(C)CCC3CC312 (single isomer, unassigned)",≥ 80,inhibition at 20 h [1]: 10 to 50%; pIC50 [3]: ≥ 7.96
C[C@]12CC[C@H]3[C@@H](CC[C@H]4C[C@@H](O)CC[C@@]43C)C1=CC=C2c1cccnc1,≥ 80,half-life at 1 µM [4]: ≥ 50 min; pIC50 [3]: ≥ 7.96
COC1CC[C@@]2(C)[C@@H](CC[C@@H]3[C@@H]2CC[C@]2(C)C(c4cncc(C)c4)=CC[C@@H]32)C1 (stereo partly drawn),1 to 50,–
Cc1cncc(C2=CC[C@H]3[C@@H]4CCC5=CN(C)CCC[C@]5(C)[C@H]4CC[C@]23C)c1,1 to 50,–
C[C@]12CC(O)C[C@@H]1CC[C@@H]1[C@@H]2CC[C@]2(C)C(n3ccnn3)=CC[C@@H]12 (stereo partly drawn),≤ 11,pIC50 [3]: 7.10 to 7.30
CCOc1cncc(C2=CC[C@H]3[C@@H]4CC[C@H]5CCOCC[C@]5(C)[C@H]4CC[C@]23C)c1,50 to 80,–
CC(=O)O[C@H]1CC[C@@]2(C)[C@@H](CC[C@H]3C4=CC=C(n5ccnc5)[C@@]4(C)CC[C@@H]32)C1,≥ 80,pIC50 [3]: ≥ 7.96
Cc1cncc(C2=CC[C@H]3[C@@H]4CC[C@H]5CCOCC[C@]5(C)[C@H]4CC[C@]23C)c1,50 to 80,pIC50 [3]: ≥ 7.96
C[C@]12CC[C@H]3[C@@H](CC[C@H]4CNC(=O)CC[C@@]43C)C1=CC=C2n1ccnn1,1 to 50,–
CCCOc1cncc(C2=CC[C@H]3[C@@H]4CCN5C(=O)CCCC[C@]5(C)[C@H]4CC[C@]23C)c1,50 to 80,pIC50 [3]: ≥ 7.96
Cc1cncc(C2=CC[C@H]3[C@@H]4CC=C5CCCC[C@]5(C)[C@H]4CC[C@]23C)c1,50 to 80,–
C[C@]12CC[C@H]3[C@@H](CC[C@H]4CNC(=O)CC[C@@]43C)C1=CC=C2c1cccnc1,50 to 80,–
Cc1ccncc1C1=CC[C@H]2[C@@H]3CC[C@H]4CCCCC[C@]4(C)[C@H]3CC[C@]12C,1 to 50,–
CCc1cncc(C2=CC[C@H]3[C@@H]4CC[C@H]5CCCCC[C@]5(C)[C@H]4CC[C@]23C)c1,1 to 50,–
CCOc1cncc(C2=CC[C@H]3[C@@H]4CC[C@H]5CCCCC[C@]5(C)[C@H]4CC[C@]23C)c1,1 to 50,–
C[C@]12CCC(=O)NC[C@@H]1CC[C@@H]1[C@@H]2CC[C@]2(C)C(n3ccnn3)=CC[C@@H]12,1 to 50,–
C[C@]12CC[C@H]3[C@@H](CCC4=CC(=O)NCC[C@@]43C)C1=CC=C2c1cccnc1,50 to 80,pIC50 [3]: ≥ 7.96
C[C@]12CC(=O)C[C@@H]1CC[C@@H]1[C@@H]2CC[C@]2(C)C(n3ccnn3)=CC[C@@H]12,1 to 50,–
COc1cncc(C2=CC=C3[C@@H]4CC=C5C[C@@H](OC(C)=O)CC[C@]5(C)[C@H]4CC[C@]23C)c1,≥ 80,pIC50 [3]: ≥ 7.96
C[C@]12CC[C@H]3[C@@H](CC[C@H]4CC(=O)NCC[C@@]43C)C1=CC=C2n1ccnn1,1 to 50,–
Cc1cncc(C2=CC[C@H]3[C@@H]4CCC5N(C)C(=O)COC[C@]5(C)[C@H]4CC[C@]23C)c1 (stereo partly drawn),1 to 50,–
C[C@]12CC[C@H](O)C[C@@H]1CC[C@@H]1[C@@H]2CC[C@]2(C)C(n3ccnn3)=CC[C@@H]12,≥ 80,pIC50 [3]: ≥ 7.96
Cc1cncc(C2=CC[C@H]3[C@@H]4CC[C@H]5CCCCC[C@]5(C)[C@H]4CC[C@]23C)c1,1 to 50,–
CCCOc1cncc(C2=CC[C@H]3[C@@H]4CCC5=CCN(C)CC[C@]5(C)[C@H]4CC[C@]23C)c1,1 to 50,–
COC1CC[C@@]2(C)[C@@H](CC[C@@H]3[C@@H]2CC[C@]2(C)C(c4cccnc4)=CC[C@@H]32)C1 (stereo partly drawn),1 to 50,–
CCOc1cncc(C2=CC[C@H]3[C@@H]4CCC5N(C)C(=O)COC[C@]5(C)[C@H]4CC[C@]23C)c1 (stereo partly drawn),1 to 50,–

SMILES,inhibition at 0.01 µM [2] [%],other results
C[C@]12CCNC(=O)CC[C@@H]1CC[C@@H]1[C@@H]2CC[C@]2(C)C(c3cccnc3)=CC[C@@H]12,50 to 80,–
COc1cncc(C2=CC[C@H]3[C@@H]4CCC5=CCN(C)CC[C@]5(C)[C@H]4CC[C@]23C)c1,1 to 50,–
CN1CC=C2CC[C@@H]3[C@H](CC[C@]4(C)C(c5cccnc5)=CC[C@@H]34)[C@@]2(C)CC1,1 to 50,pIC50 [3]: ≥ 7.96
COc1cncc(C2=CC[C@H]3[C@@H]4CCC5=CC(=O)NCC[C@]5(C)[C@H]4CC[C@]23C)c1,50 to 80,pIC50 [3]: ≥ 7.96
C[C@]12CCCCC[C@@H]1CC[C@@H]1[C@@H]2CC[C@]2(C)C(c3cnccc3Cl)=CC[C@@H]12,1 to 50,–
C[C@]12CC[C@H]3[C@@H](CC[C@H]4CNC(=O)CC[C@@]43C)C1=CC=C2n1ccnc1,50 to 80,–
C=Cc1cncc(C2=CC[C@H]3[C@@H]4CCN5C(=O)CCCC[C@]5(C)[C@H]4CC[C@]23C)c1,50 to 80,pIC50 [3]: ≥ 7.96
COc1cncc(C2=CC[C@H]3[C@@H]4CCN5CCCCC[C@]5(C)[C@H]4CC[C@]23C)c1,1 to 50,–
CC(=O)O[C@H]1CC[C@@]2(C)[C@@H](CC[C@H]3C4=CC=C(c5cccnc5)[C@@]4(C)CC[C@@H]32)C1,≥ 80,–
CN1CC[C@@]2(C)C(=CC1=O)CC[C@@H]1[C@@H]2CC[C@]2(C)C(n3cnc4ccccc43)=CC[C@@H]12,1 to 50,–
C[C@]12CCNCC[C@@H]1CC[C@@H]1[C@@H]2CC[C@]2(C)C(n3ccnn3)=CC[C@@H]12,1 to 50,–
C[C@]12CCCCC[C@@H]1CC[C@@H]1[C@@H]2CC[C@]2(C)C(c3cccnc3)=CC[C@@H]12,1 to 50,–
Cc1cncc(C2=CC[C@H]3[C@@H]4CCN5CCCCC[C@]5(C)[C@H]4CC[C@]23C)c1,1 to 50,–
CCc1cncc(C2=CC[C@H]3[C@@H]4CC=C5CCCC[C@]5(C)[C@H]4CC[C@]23C)c1,1 to 50,–
C[C@]12CCCNC[C@@H]1CC[C@@H]1[C@@H]2CC[C@]2(C)C(n3ccnn3)=CC[C@@H]12,1 to 50,–
CCc1cncc(C2=CC[C@H]3[C@@H]4CCC5=CCN(C)CC[C@]5(C)[C@H]4CC[C@]23C)c1,1 to 50,–
COC1CC[C@@]2(C)[C@@H](CC[C@@H]3[C@@H]2CC[C@]2(C)C(n4ccnn4)=CC[C@@H]32)C1 (stereo partly drawn),1 to 50,–
COc1cncc(C2=CC[C@H]3[C@@H]4CC=C5CCCC[C@]5(C)[C@H]4CC[C@]23C)c1,50 to 80,–
COc1cncc(C2=CC[C@H]3[C@@H]4CC[C@H]5CCCCC[C@]5(C)[C@H]4CC[C@]23C)c1,50 to 80,–
CCCOc1cncc(C2=CC[C@H]3[C@@H]4CCC5=CC(=O)N(C)CC[C@]5(C)[C@H]4CC[C@]23C)c1,50 to 80,–
C[C@]12CC[C@H]3[C@@H](CCN4CCCCC[C@]34C)[C@@H]1CC=C2c1cccnc1,1 to 50,–
C[C@]12CCC(=O)NC[C@@H]1CC[C@@H]1[C@@H]2CC[C@]2(C)C(n3ccnc3)=CC[C@@H]12,50 to 80,–
Cc1cncc(C2=CC[C@H]3[C@@H]4CCC5=CC(=O)N(C)CC[C@]5(C)[C@H]4CC[C@]23C)c1,50 to 80,pIC50 [3]: ≥ 7.96
C[C@]12CC[C@H](O)CC1=CC[C@@H]1[C@@H]2CC[C@]2(C)C(c3cncc(N)c3)=CC[C@@H]12,–,half-life at 1 µM [4]: ≥ 50 min; inhibition at 20 h [1]: ≥ 50%; pIC50 [3]: ≥ 7.96
C[C@]12CCNC(=O)C=C1CC[C@@H]1[C@@H]2CC[C@]2(C)C(n3cnc4ccccc43)=CC[C@@H]12,1 to 50,–
